Values joined by “and” are separate entries in the source; they are usually repeats but may differ in a detail not shown here. Equal entries are not always repeated.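 How tested: cells in 96-well plates exposed to compound for 48 hours at five concentrations. GI50 is the concentration that inhibits growth by half. TGI denotes the concentration required for complete inhibition of growth.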 Some results are limits rather than exact numbers.

Test systems include U251 CNS; SN12C renal; CCRF-CEM leukemia; NCI-H23 lung; MALME-3M melanoma; RXF 393 renal; SF-268 CNS; OVCAR-3 ovarian; NCI-H522 lung; CAKI-1 renal.
What all share (test): NCI-60 cell line screen, 48 h

Take `COc1ccc(/C=N\Nc2nc(SCC(C)C)nc(-c3ccc(OC)cc3)c2C#N)cc1`: the GI50 is 988 nM in the assay with U251 CNS; 2.1 µM with SN12C renal; 9780 nM in the assay on CCRF-CEM leukemia; 12200 nM in the assay with NCI-H23 lung; 10200 nM in the assay with MALME-3M melanoma; 2810 nM in the assay on RXF 393 renal. In addition, the GI50 in the assay with SF-268 CNS is 11700 nM; with OVCAR-3 ovarian, 6.71 µM; with NCI-H522 lung, 11300 nM; in the assay on CAKI-1 renal, 1550 nM. In addition, the TGI in the assay with U251 CNS is 14.9 µM; in the assay with SN12C renal it was 20.4 µM; in the assay with CCRF-CEM leukemia, more than 100 µM; in the assay on NCI-H23 lung, 31.7 µM; in the assay with MALME-3M melanoma it was 47.9 µM; with RXF 393 renal, 15.8 µM. Besides, the TGI in the assay with SF-268 CNS came out at 67.7 µM; with OVCAR-3 ovarian, 21.1 µM; in the assay on NCI-H522 lung, 63.2 µM; with CAKI-1 renal it was 3.96 µM.
With `O=S(=O)(NCCCNc1cc(-c2cn(-c3ccccc3)nc2-c2cccc(O)c2)ccn1)c1ccc(F)cc1`, the GI50 in the assay on U251 CNS was 2970 nM; with SN12C renal, 4.32 µM; in the assay with CCRF-CEM leukemia, 2450 nM; in the assay on NCI-H23 lung, 3480 nM; with MALME-3M melanoma, 2560 nM; in the assay with RXF 393 renal it was 3210 nM. The GI50 was 3650 nM in the assay with SF-268 CNS, 3.28 µM in the assay with OVCAR-3 ovarian, 2290 nM in the assay with NCI-H522 lung and 4560 nM in the assay with CAKI-1 renal. For the same molecule, the TGI in the assay with U251 CNS is 10.3 µM; in the assay on SN12C renal it was 28.2 µM; with CCRF-CEM leukemia it was 9.41 µM; in the assay with NCI-H23 lung, 19 µM; with MALME-3M melanoma, 8.91 µM; in the assay on RXF 393 renal, 14.6 µM. For the same molecule, the TGI in the assay on SF-268 CNS came out at 22.9 µM; in the assay on OVCAR-3 ovarian, 14.9 µM; in the assay with NCI-H522 lung it was 7.44 µM; in the assay with CAKI-1 renal, 44.6 µM.
With `CC1CCN(CCOc2ccc(CNc3ccc4nc(CCC5CCCCC5)[nH]c4c3)cc2)CC1`, the GI50 in the assay on U251 CNS is 1440 nM; in the assay with SN12C renal, 1.54 µM; with CCRF-CEM leukemia it was 1720 nM; in the assay with NCI-H23 lung it was 1890 nM; in the assay on MALME-3M melanoma, 1710 nM; in the assay with RXF 393 renal, 1330 nM. Moreover, the GI50 is 1680 nM in the assay on SF-268 CNS, 1.61 µM in the assay with OVCAR-3 ovarian, 1820 nM in the assay on NCI-H522 lung and 1870 nM in the assay on CAKI-1 renal. Moreover, the TGI is 2.85 µM with U251 CNS; 2.95 µM in the assay with SN12C renal; 6.41 µM with CCRF-CEM leukemia; 3.98 µM with NCI-H23 lung; 3.17 µM in the assay with MALME-3M melanoma; 2.84 µM with RXF 393 renal. Further, the TGI with SF-268 CNS was determined as 3.44 µM; with OVCAR-3 ovarian, 3.12 µM; in the assay on NCI-H522 lung it was 3.58 µM; with CAKI-1 renal, 3.34 µM.
Take `COC1=C(OC)C(=O)C(CCCCCCCCCCO)=C(C)C1=O`: the GI50 was 3030 nM in the assay on U251 CNS; 7.39 µM in the assay with SN12C renal; 3150 nM with CCRF-CEM leukemia; 3170 nM in the assay on NCI-H23 lung; 7470 nM in the assay with MALME-3M melanoma; 10100 nM in the assay on RXF 393 renal. The GI50 with SF-268 CNS was 9610 nM; in the assay on OVCAR-3 ovarian it was 10.2 µM; in the assay on NCI-H522 lung, 11200 nM; in the assay with CAKI-1 renal, 4010 nM. For the same molecule, the TGI in the assay with U251 CNS is 12.5 µM; with SN12C renal, 24.4 µM; with CCRF-CEM leukemia it was 20.4 µM; with NCI-H23 lung, 16.6 µM; in the assay with MALME-3M melanoma, 21.8 µM; in the assay on RXF 393 renal, 23.9 µM. Further, the TGI came out at 30.7 µM with SF-268 CNS, 24.7 µM with OVCAR-3 ovarian, 35.3 µM in the assay with NCI-H522 lung and 29 µM in the assay on CAKI-1 renal.
Regarding `CC1(C)[C@H](O)[C@H](F)C[C@@]2(C)Oc3ccc(C(=O)Nc4ccc5c(c4)NC(=O)C54CCN(CCCCC#N)CC4)cc3C[C@H]12`, the GI50 was 4.14 nM in the assay on U251 CNS; 11.7 µM with SN12C renal; 9.49 nM with CCRF-CEM leukemia; 2440 nM and 2290 nM with NCI-H23 lung; 332 nM and 1040 nM in the assay with MALME-3M melanoma; 2.79 nM in the assay with RXF 393 renal. Besides, the GI50 in the assay on SF-268 CNS was 413 nM and 400 nM; with OVCAR-3 ovarian, 3.82 µM and 12 µM; with NCI-H522 lung, 1770 nM and 1020 nM. For the same molecule, the TGI in the assay on U251 CNS was 2.02 µM; with SN12C renal it was 42.4 µM; in the assay on CCRF-CEM leukemia, 5.98 µM and 6.98 µM; in the assay with NCI-H23 lung, 17.8 µM; with MALME-3M melanoma, 3.1 µM and 3.43 µM; with SF-268 CNS, 10.1 µM. The TGI in the assay on OVCAR-3 ovarian was 30.4 µM; in the assay with NCI-H522 lung, 7.86 µM and 2.52 µM; with CAKI-1 renal, 38.5 µM.
For `Nc1nc(-c2ccc(Cl)cc2)nc2c1sc(=S)n2-c1ccccc1`, the GI50 was 3500 nM in the assay on U251 CNS; 6.34 µM in the assay with SN12C renal; 27000 nM with CCRF-CEM leukemia; 4050 nM with NCI-H23 lung; 2590 nM in the assay with MALME-3M melanoma; 2510 nM with RXF 393 renal. In addition, the GI50 with SF-268 CNS was 3750 nM; with OVCAR-3 ovarian it was 2.75 µM; in the assay with NCI-H522 lung, 5640 nM; in the assay on CAKI-1 renal, 9170 nM. Also, the TGI is 11.9 µM with U251 CNS; 48.1 µM in the assay with SN12C renal; more than 100 µM in the assay with CCRF-CEM leukemia; 18.2 µM in the assay with NCI-H23 lung; 5.67 µM in the assay on MALME-3M melanoma; 6.19 µM in the assay on RXF 393 renal. Further, the TGI in the assay on SF-268 CNS was 20.2 µM; in the assay on OVCAR-3 ovarian, 7.64 µM; in the assay with NCI-H522 lung it was more than 100 µM; with CAKI-1 renal, 84.5 µM.
Regarding `COc1cc(-c2ncn(/C=C\c3nnco3)n2)cc(C(F)(F)F)c1`, the GI50 with U251 CNS was 66.1 nM; with SN12C renal, 0.723 µM; in the assay on CCRF-CEM leukemia it was 194 nM; in the assay on NCI-H23 lung, 132 nM; with MALME-3M melanoma, 464 nM; with RXF 393 renal, 30.7 nM. Moreover, the GI50 is 89.1 nM in the assay with SF-268 CNS, 0.12 µM with OVCAR-3 ovarian, 67.1 nM with NCI-H522 lung and 154 nM in the assay with CAKI-1 renal. For the same molecule, the TGI is 17.6 µM with U251 CNS; more than 83.2 µM in the assay on SN12C renal; more than 100 µM with CCRF-CEM leukemia; more than 64.8 µM with NCI-H23 lung; more than 100 µM with MALME-3M melanoma; 0.198 µM with RXF 393 renal. Also, the TGI is 23.9 µM in the assay on SF-268 CNS, 2.69 µM in the assay with OVCAR-3 ovarian, 1.61 µM with NCI-H522 lung and more than 100 µM with CAKI-1 renal.

These data come from PubChem BioAssay (NCI).
